Source: PubChem BioAssay AID256 (DTP/NCI, 2004)
Inconclusive results and toxic doses are left out. Rule for the calls: active = survival T/C of 150% or more; inactive = T/C below 125% in these data.

Tested on: CD2F1 mice, L1210 leukemia ip, survival T/C
Experiment: NCI In Vivo Anticancer Drug Screen. Data for tumor model L1210 Leukemia (intraperitoneal) in CD2F1 (CDF1) mice
Conditions: endpoint: mean survival time, higher = longer survival
Outline: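 In this screen, transplantable tumors were grown in mice given either the compound or its vehicle. Results were expressed as the treated measurement relative to the control measurement.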

[1] = dose: 100.0 mg/kg/injection, schedule: Q01DX001 (ip), vehicle: saline with Tween-80
[2] = dose: 200.0 mg/kg/injection, schedule: Q01DX001 (ip), vehicle: saline with Tween-80
[3] = dose: 400.0 mg/kg/injection, schedule: Q01DX001 (ip), vehicle: saline with Tween-80
[4] = dose: 100.0 mg/kg/injection, schedule: Q01DX001 (ip), vehicle: saline
[5] = dose: 200.0 mg/kg/injection, schedule: Q01DX001 (ip), vehicle: saline
[6] = dose: 400.0 mg/kg/injection, schedule: Q01DX001 (ip), vehicle: saline
[7] = dose: 100.0 mg/kg/injection, schedule: Q04DX003 (ip), vehicle: saline with Tween-80
[8] = dose: 200.0 mg/kg/injection, schedule: Q04DX003 (ip), vehicle: saline with Tween-80
[9] = dose: 400.0 mg/kg/injection, schedule: Q04DX003 (ip), vehicle: saline with Tween-80

Measured: T/C

C1CSC(=[N+]2CC[N+](=C3SCCS3)CC2)S1
inactive: dose: 12.5 mg/kg/injection, schedule: Q01DX009 (ip), vehicle: saline 101 % of control | dose: 25.0 mg/kg/injection, schedule: Q01DX009 (ip), vehicle: saline 104 % of control | dose: 25.0 mg/kg/injection, schedule: Q04DX002 (ip), vehicle: saline 100 % of control | dose: 50.0 mg/kg/injection, schedule: Q04DX002 (ip), vehicle: saline 88 % of control

ClC(Cl)(Cl)c1ccc(C(SCc2ccccc2)SCc2ccccc2)cc1
inactive: [1] 89 % of control | [2] 89 % of control | [3] 97 % of control

CCCCCOC(=N)CC(=O)C(C)(C)C
inactive: [4] 94 % of control | [5] 94 % of control | [6] 97 % of control

CN(C)C(=S)NN
inactive: dose: 1.5 mg/kg/injection, schedule: Q01DX001 (ip), vehicle: saline 92 % of control | dose: 3.0 mg/kg/injection, schedule: Q01DX001 (ip), vehicle: saline 97 % of control | dose: 6.0 mg/kg/injection, schedule: Q01DX001 (ip), vehicle: saline 97 % of control

CC(C)(C)C(CCC(=O)O)CC(=O)O (stereo unspecified)
inactive: [7] 97 % of control | [8] 96 % of control | [9] 100 % of control

Cc1ccc(C(C)C)cc1NC(=O)c1ccccc1C(=O)O
inactive: [7] 95 % of control | [8] 95 % of control | [9] 87 % of control

C/C=C/C=C/C(=O)n1nnn(/C=C/C=C/C)c1=O
inactive: dose: 50.0 mg/kg/injection, schedule: Q04DX002 (ip), vehicle: saline with Tween-80 98 % of control | dose: 100.0 mg/kg/injection, schedule: Q04DX002 (ip), vehicle: saline with Tween-80 91 % of control | dose: 200.0 mg/kg/injection, schedule: Q04DX002 (ip), vehicle: saline with Tween-80 95 % of control | dose: 400.0 mg/kg/injection, schedule: Q04DX002 (ip), vehicle: saline with Tween-80 98 % of control

Cl/C=C\C[N+]12CN3CN(CN(C3)C1)C2
inactive: dose: 100.0 mg/kg/injection, schedule: Q04DX003 (ip), vehicle: saline 96 % of control

C[N+](C)(C)CC1CS1 (stereo unspecified)
inactive: dose: 4.5 mg/kg/injection, schedule: Q01DX009 (ip), vehicle: saline sonified 96 % of control | dose: 4.5 mg/kg/injection, schedule: Q04DX003 (ip), vehicle: saline 98 % of control | dose: 9.0 mg/kg/injection, schedule: Q01DX009 (ip), vehicle: saline sonified 94 % of control | dose: 9.0 mg/kg/injection, schedule: Q04DX003 (ip), vehicle: saline 98 % of control | dose: 18.0 mg/kg/injection, schedule: Q01DX009 (ip), vehicle: saline sonified 92 % of control | dose: 18.0 mg/kg/injection, schedule: Q04DX003 (ip), vehicle: saline 95 % of control

CC(=O)C1=CCC2[C@H]3CC=C4C[C@H](O)CC[C@@]4(C)C3CC[C@@]12C (stereo partly specified)
inactive: dose: 100.0 mg/kg/injection, schedule: Q04DX003 (ip), vehicle: Klucel (hydroxypropylcellulose) (HPC) 103 % of control | dose: 200.0 mg/kg/injection, schedule: Q04DX003 (ip), vehicle: Klucel (hydroxypropylcellulose) (HPC) 103 % of control | dose: 400.0 mg/kg/injection, schedule: Q04DX003 (ip), vehicle: Klucel (hydroxypropylcellulose) (HPC) 103 % of control

CC(CC(C)(C)C)O[Si](C)C1(C)CCCCC1 (stereo unspecified)
inactive: [7] 102 % of control | [8] 112 % of control | [9] 106 % of control

CC(C)(O)CCC(C)(C)O
inactive: [7] 106 % of control | [8] 101 % of control | [9] 103 % of control

Cc1ccc(NC(=O)Nc2cccc(-n3cnc4c(=O)[nH]c(N)nc43)c2)cc1S(=O)(=O)F
inactive: [1] 86 % of control | [2] 88 % of control | [3] 89 % of control

CCN(CC)C(=S)SCn1ncc2ccc([N+](=O)[O-])cc21
inactive: [4] 95 % of control | [5] 92 % of control | [6] 89 % of control

C[Si](C)(C)Nc1ncnc2c1ncn2[Si](C)(C)C
inactive: dose: 100.0 mg/kg/injection, schedule: Q01DX009 (ip), vehicle: saline with Tween-80 94 % of control | [7] 103 % of control | dose: 200.0 mg/kg/injection, schedule: Q01DX009 (ip), vehicle: saline with Tween-80 105 % of control | [8] 103 % of control | dose: 400.0 mg/kg/injection, schedule: Q01DX009 (ip), vehicle: saline with Tween-80 106 % of control | [9] 101 % of control
